Source: US20090232786A1, “HERBAL COMPOSITION FOR CANCER TREATMENT” (priority 2001, published 2009)

Assays:
[1] = system: Prostaglandin E2 (PGE2) production in a mouse 3T3 fibroblast cell line; assay: Anti-inflammatory assay: secreted PGE2 from stimulated 3T3 fibroblasts; format: cell-based; settings: 3T3 cells, 500 μM, dilution 500
Text: This assay was run to determine the effectiveness of the herbal formula to inhibit Prostaglandin E2 (PGE2) production in a mouse 3T3 fibroblast cell line.
The anti-inflammatory assay measures the level of PGE2 in stimulated mouse fibroblast 3T3 cell line after treatment with the herbal formula. The use of a stimulated cell line rather than using isolated enzyme systems gives more useful data.
PGE2 is formed in a variety of cells from PGH2, which itself is synthesized from arachiodonic acid by the enzyme prostaglandin synthetase. The assay measures secreted levels of PGE2 from the supernatant of the fibroblast cells.

serum PSA = assay: Patient case studies: serum PSA; format: in vivo, human; settings: Example 11; Casodex 50 mg once daily for three months; PSA before 41
Method: Serum PSA was measured to be 300. This patient then started hormone therapy including an oral administration of 100 mg of Androcur (Cyproterone Acetate) 3 times per day, and a subcutaneous injection of 3.6 mg of Zolodex (Goserelin Acetate Implant) once per three months. The prostate has been monitored since with serum PSA levels, varying between “28-62”.
In May 2001, the PSA level was measured to be 41. At that time, the patient stopped taking Androcur and Zolodex, and started to take Casodex 50 mg once daily. The treatment with Casodex continued for three months and follow-up blood tests indicated a serum PSA of 5.7.
From August 2001, this patient started to combine Casodex with an oral administration of the herbal formula of the present invention. The intake dosage of the herbal formula was 2070 mg per day. This combination treatment continued for two months.
From October 2001, the dosage of this herb formula was increased to 2760 mg per day. Following PSA level measurement was 2.3 in November 2001.
The patient in this case study was a person. […] The PSA was measured to be 21.
The prostate has been monitored approximately every 6 months. As the PSA reading was between “13-17” on occasions, when readings were high, antibiotics were prescribed for prostatitis. The PSA was measured to be 18.7 at August of 2001. […]

HL60 cell lines = assay: HL60 cell cycle assay; format: cell-based, human; settings: HL60, positive control (FIG. 10)
Method: The bioactivity of the herb formula was assessed using HL60 cell lines. HL60 is a human promyelocytic leukemia cell line.

LNCap cell lines = assay: LNCap cell cycle assay; format: cell-based; settings: positive control (FIG. 7)
Method: A anti-cancer activity assay was conducted with the results presented in Table 3 wherein the herb formula represents a combination according to the present invention. LNCap is an androgen-dependent prostate cancer cell line.

PC-3 cell lines = assay: PC3 cell cycle analysis by flow cytometry of propidium iodide stained cells; format: cell-based; settings: PC-3, paclitaxol 10 ng/mL (FIG. 3)
Method: Cell cycle analysis was carried out using tablets/capsules of the present invention. The formulation was tested as a single tablet/capsule concentration in triplicate and as a two capsule concentration also in triplicate.
Tablets/capsules were weighed, crushed and extracted with 10 ml of methanol. The extracts were sonicated for 40 mins and then spun down at 4000 rpm. The supernatant was removed and 100 μL of this extract was used in the cell cycle analysis. A further aliquot of this extract was subjected to HPLC-MS analysis as described in Example 3 below. Cells were split into 16×25 cm^2 flasks at a low concentration and allowed to grow to 65-70% confluence (at the time of addition the cells were in log phase). Flasks were incubated for 24 hours and control flasks of control media (no additions), an ethanol (100 μL EtOH), a control methanol (100 μL MeOH) and paclitaxol (10 μL of 0.01 mg/mL=10 ng/mL) were also run.
Flow cytometry was performed on the fixed cells after washing in PBS and stained using propidium iodide (2% PI in 0.1% Triton X-100 containing 2 mg/mL Rnase A). A Becton Dickson FACSCaliber was used to assay the cells.

[2] = biological target: T1, estrogen (E2) binding site on MCF-7 cell lines (Homo sapiens, UniProt P03372); assay: Estrogen binding assay, 3H 17-β-estradiol displacement; settings: MCF-7, 197 μM, 1 nM 3H E2, 3 hours
T1 construct: endogenous in cells; host or cells: MCF-7 breast cancer cells
T1 sequence (P03372 1-595): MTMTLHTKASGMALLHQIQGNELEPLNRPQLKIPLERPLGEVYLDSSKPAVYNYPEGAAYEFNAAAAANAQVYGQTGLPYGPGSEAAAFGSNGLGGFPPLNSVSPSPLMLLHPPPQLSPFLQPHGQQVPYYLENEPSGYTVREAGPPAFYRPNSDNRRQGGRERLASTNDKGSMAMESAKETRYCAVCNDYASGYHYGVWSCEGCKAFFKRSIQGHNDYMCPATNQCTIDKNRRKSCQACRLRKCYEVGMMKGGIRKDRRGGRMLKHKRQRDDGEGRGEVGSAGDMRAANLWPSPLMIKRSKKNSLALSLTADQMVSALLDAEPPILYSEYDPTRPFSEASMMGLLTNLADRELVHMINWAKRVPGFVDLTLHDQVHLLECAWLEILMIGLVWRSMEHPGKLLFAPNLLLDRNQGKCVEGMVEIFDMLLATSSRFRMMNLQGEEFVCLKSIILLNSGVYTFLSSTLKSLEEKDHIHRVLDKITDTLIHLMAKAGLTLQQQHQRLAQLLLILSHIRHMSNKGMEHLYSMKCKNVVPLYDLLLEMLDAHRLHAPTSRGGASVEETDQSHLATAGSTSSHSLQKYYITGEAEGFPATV
Method: The estrogen binding capacity of the herbal formula was investigated by assay. This assay was developed and run to determine if the herbal extracts that constitute the herbal formula have any binding activity towards the estrogen (E2) binding site on MCF-7 cell lines. The MCF-7 is a breast cancer cell line and was chosen because of the ability to express E2 binding sites.
^3H 17-β-estradiol (E2) was used at a final concentration in the wells of 1 nM in media. Samples were incubated for 3 hours after which the wells were aspirated and washed 3 times with warm PBS. Cell bound radioactivity was extracted with 300 μL EtOH which was added to each well and left to lyse for 20 min at room temperature. An aliquot was removed for counting, transferred to a counting plate and scintillant added and the plate counted in a Perkin Elmer MicroBeta.

CC(=O)Oc1ccccc1C(=O)O [Aspirin]
% Control (secreted PGE2) [1]: 14.2%

CC(O)(CS(=O)(=O)c1ccc(F)cc1)C(=O)Nc1ccc(C#N)c(C(F)(F)F)c1 (centres unmarked) [Casodex]
serum PSA (serum PSA): 5.7

CC(=O)O[C@H]1C(=O)[C@@]2(C)[C@H]([C@H](OC(=O)c3ccccc3)[C@]3(O)C[C@H](OC(=O)[C@H](O)[C@@H](NC(=O)c4ccccc4)c4ccccc4)C(C)=C1C3(C)C)[C@]1(OC(C)=O)CO[C@@H]1C[C@@H]2O [Paclitaxol]
effect on the cell cycle (HL60 cell lines): arrest the cells in the G2-M stage
effect on the cell cycle (LNCap cell lines): arresting of cells in G2-M
cells in the G0-G1 phase (PC-3 cell lines): 1.16%
cells in the G2-M phase (PC-3 cell lines): 71.89%
cells in the S phase (PC-3 cell lines): 26.95%

O=c1c(-c2ccc(O)cc2)coc2cc(O)ccc12 [diadzein]
displacement of 3H E2 from the E2 receptor [2]: > 60%
